Source: ChEMBL document CHEMBL4152269, “New N-phenylpyrrolamide DNA gyrase B inhibitors: Optimization of efficacy and antibacterial activity” (Eur J Med Chem, 2018)
Values after ≈ are worked out from the molar mass of the structure shown.

How the values were obtained:
DNA gyrase subunit B [1] = biological target: DNA gyrase subunit B (Staphylococcus aureus, UniProt P0A0K8); assay: Inhibition of Staphylococcus aureus DNA gyrase B preincubated for 10 mins followed by ATP addition measured after 30 mins by purine nucleoside phosphorylase enzyme coupled spectrophotometric method
Chain of DNA gyrase subunit B (Staphylococcus aureus, UniProt P0A0K8) (P0A0K8 whole entry): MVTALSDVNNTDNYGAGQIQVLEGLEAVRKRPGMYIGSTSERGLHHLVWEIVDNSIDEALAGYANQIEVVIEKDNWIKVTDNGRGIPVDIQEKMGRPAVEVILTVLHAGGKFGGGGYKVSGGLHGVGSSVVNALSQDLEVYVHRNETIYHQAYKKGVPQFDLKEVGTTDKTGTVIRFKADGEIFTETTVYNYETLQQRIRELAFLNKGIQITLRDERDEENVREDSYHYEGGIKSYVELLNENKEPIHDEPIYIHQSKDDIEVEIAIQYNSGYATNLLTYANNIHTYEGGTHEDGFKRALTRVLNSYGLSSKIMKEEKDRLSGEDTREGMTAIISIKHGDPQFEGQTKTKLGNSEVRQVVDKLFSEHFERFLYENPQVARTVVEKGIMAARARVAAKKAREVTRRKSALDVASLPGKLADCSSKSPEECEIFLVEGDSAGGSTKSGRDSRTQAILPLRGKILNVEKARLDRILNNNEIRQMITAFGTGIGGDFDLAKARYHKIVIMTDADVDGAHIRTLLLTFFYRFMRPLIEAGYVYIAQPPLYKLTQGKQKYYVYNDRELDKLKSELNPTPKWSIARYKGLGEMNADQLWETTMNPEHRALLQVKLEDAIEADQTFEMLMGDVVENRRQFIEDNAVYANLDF

Escherichia coli [2] = assay: Inhibition of Escherichia coli C-terminal His6-tagged topoisomerase-4 expressed in Escherichia coli BL21(DE3) assessed as residual activity at 1 uM preincubated for 10 mins followed by ATP addition measured after 30 mins by purine nucleoside phosphorylase enzyme coupled spectrophotometric method relative to control
Staphylococcus aureus [3] = assay: Inhibition of Staphylococcus aureus topoisomerase-4 assessed as residual activity at 1 uM preincubated for 10 mins followed by ATP addition measured after 30 mins by purine nucleoside phosphorylase enzyme coupled spectrophotometric method relative to control
Staphylococcus aureus [4] = assay: Growth inhibition of Staphylococcus aureus ATCC 25923 at 50 uM after 24 hrs by broth microdilution method relative to control; assay type: functional; conditions: ATCC 25923, 24 h, read-out: GI
Enterococcus faecalis [5] = assay: Growth inhibition of Enterococcus faecalis ATCC 29212 at 50 uM after 24 hrs by broth microdilution method relative to control; assay type: functional; conditions: ATCC 29212, 24 h, read-out: GI
Escherichia coli [6] = assay: Growth inhibition of Escherichia coli ATCC 25922 at 50 uM after 24 hrs by broth microdilution method relative to control; assay type: functional; conditions: ATCC 25922, 24 h, read-out: GI
Pseudomonas aeruginosa = assay: Growth inhibition of Pseudomonas aeruginosa ATCC 27853 at 50 uM after 24 hrs by broth microdilution method relative to control; assay type: functional; conditions: ATCC 27853, 24 h, read-out: GI
Escherichia coli [7] = assay: Growth inhibition of tolC deficient Escherichia coli JW5503 at 50 uM after 24 hrs by broth microdilution method relative to control; assay type: functional; conditions: JW5503, 24 h, read-out: GI
Escherichia coli [8] = assay: Growth inhibition of lpxC deficient Escherichia coli JD17464 at 50 uM after 24 hrs by broth microdilution method relative to control; assay type: functional; conditions: JD17464, 24 h, read-out: GI
DNA gyrase subunit B [9] = biological target: DNA gyrase subunit B (Escherichia coli, UniProt P0AES6); assay: Inhibition of Escherichia coli DNA gyrase by supercoiling assay
[10] = Inhibition of Escherichia coli C-terminal His6-tagged topoisomerase-4 expressed in Escherichia coli BL21(DE3) preincubated for 10 mins followed by ATP addition measured after 30 mins by purine nucleoside phosphorylase enzyme coupled spectrophotometric method
Enterococcus faecalis [11] = assay: Antibacterial activity against Enterococcus faecalis; assay type: functional, organism-based
[12] = biological target: DNA gyrase subunit B (Staphylococcus aureus) (UniProt P0A0K8); assay: Inhibition of Staphylococcus aureus DNA gyrase B assessed as residual activity at 1 uM preincubated for 10 mins followed by ATP addition measured after 30 mins by purine nucleoside phosphorylase enzyme coupled spectrophotometric method relative to control
Chain of DNA gyrase subunit B (Staphylococcus aureus) (P0A0K8 2-644 limits assumed): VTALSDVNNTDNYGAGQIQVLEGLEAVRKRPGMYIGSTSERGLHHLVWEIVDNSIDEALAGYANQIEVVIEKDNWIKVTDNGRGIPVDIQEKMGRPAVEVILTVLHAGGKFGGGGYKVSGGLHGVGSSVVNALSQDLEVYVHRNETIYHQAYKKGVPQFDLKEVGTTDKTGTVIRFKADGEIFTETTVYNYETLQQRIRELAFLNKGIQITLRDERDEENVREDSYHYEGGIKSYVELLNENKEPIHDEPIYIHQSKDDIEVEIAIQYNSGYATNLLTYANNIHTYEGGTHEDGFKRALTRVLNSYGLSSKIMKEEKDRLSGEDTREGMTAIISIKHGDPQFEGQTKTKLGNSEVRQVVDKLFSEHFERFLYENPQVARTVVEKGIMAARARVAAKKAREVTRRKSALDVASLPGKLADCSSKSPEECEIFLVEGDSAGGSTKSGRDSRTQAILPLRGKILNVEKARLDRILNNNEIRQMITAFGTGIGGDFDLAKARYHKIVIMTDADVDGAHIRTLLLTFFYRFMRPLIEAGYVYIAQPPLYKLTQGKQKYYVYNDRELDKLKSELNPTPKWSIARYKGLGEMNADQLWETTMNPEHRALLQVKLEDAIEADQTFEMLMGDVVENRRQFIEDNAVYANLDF

[13] = Inhibition of Staphylococcus aureus topoisomerase-4 assessed as residual activity preincubated for 10 mins followed by ATP addition measured after 30 mins by purine nucleoside phosphorylase enzyme coupled spectrophotometric method
Escherichia coli [14] = assay: microbe, parasite or virus in culture; conditions: ATCC 25922, 18 h

CC(C)Oc1cc(C(=O)N[C@@H](C)C(=O)O)ccc1NC(=O)c1cc(Br)c(Br)[nH]1
IC50 (DNA gyrase subunit B [1]): 5.9 µM | Activity (Escherichia coli [2]): 78% | Activity (Staphylococcus aureus [3]): 98% | inhibition of growth at 50 µM (Staphylococcus aureus [4]): -18% | inhibition of growth at 50 µM (Enterococcus faecalis [5]): 70% | inhibition of growth at 50 µM (Escherichia coli [6]): 0% | inhibition of growth at 50 µM (Pseudomonas aeruginosa): 10% | inhibition of growth at 50 µM (Escherichia coli [7]): 6% | inhibition of growth at 50 µM (Escherichia coli [8]): -15% | IC50 (DNA gyrase subunit B [9]): 0.37 µM

Cc1[nH]c(C(=O)Nc2ccc(C(=O)NCC(=O)O)cc2OC(C)C)c(Cl)c1Cl
IC50 [10]: 11 µM | MIC (Enterococcus faecalis [11]): 50 µM (≈ 21.4 µg/mL)

NCCOc1cc(C(=O)N[C@@H](Cc2ccccc2)C(=O)O)ccc1NC(=O)c1cc(Br)c(Br)[nH]1
Activity [12]: 89% | Activity (Escherichia coli [2]): 96% | Activity (Staphylococcus aureus [3]): 98% | inhibition of growth at 50 µM (Staphylococcus aureus [4]): 20% | inhibition of growth at 50 µM (Enterococcus faecalis [5]): 34% | inhibition of growth at 50 µM (Escherichia coli [6]): 5% | inhibition of growth at 50 µM (Pseudomonas aeruginosa): 21% | inhibition of growth at 50 µM (Escherichia coli [7]): -6% | inhibition of growth at 50 µM (Escherichia coli [8]): 9% | IC50 (DNA gyrase subunit B [9]): 0.37 µM

O=C(O)CNC(=O)c1ccc(NC(=O)c2cc(Br)c(Br)[nH]2)cc1OCc1ccccc1
Activity [12]: 79% | Activity (Escherichia coli [2]): 100% | IC50 [13]: 39 µM | inhibition of growth at 50 µM (Staphylococcus aureus [4]): 19% | inhibition of growth at 50 µM (Enterococcus faecalis [5]): 2% | inhibition of growth at 50 µM (Escherichia coli [6]): 10% | inhibition of growth at 50 µM (Pseudomonas aeruginosa): -2% | IC50 (DNA gyrase subunit B [9]): 0.088 µM

O=C(O)c1cn(C2CC2)c2cc(N3CCNCC3)c(F)cc2c1=O [CIPROFLOXACIN]
MIC90 (Escherichia coli [14]): 0.05 µM (≈ 0.0166 µg/mL)
